21 compounds from patent US11319324B2, “Pyrazolo-pyrrolo-pyrimidine-dione derivatives as P2X3 inhibitors” (Bayer Aktiengesellschaft, priority 2017, dated 2022) can be followed below.

Holding throughout (format): cell-based
For assay [1], the target named is T1, human P2X3 receptor (Homo sapiens, UniProt P56373).
T1 sequence (P56373 1-397): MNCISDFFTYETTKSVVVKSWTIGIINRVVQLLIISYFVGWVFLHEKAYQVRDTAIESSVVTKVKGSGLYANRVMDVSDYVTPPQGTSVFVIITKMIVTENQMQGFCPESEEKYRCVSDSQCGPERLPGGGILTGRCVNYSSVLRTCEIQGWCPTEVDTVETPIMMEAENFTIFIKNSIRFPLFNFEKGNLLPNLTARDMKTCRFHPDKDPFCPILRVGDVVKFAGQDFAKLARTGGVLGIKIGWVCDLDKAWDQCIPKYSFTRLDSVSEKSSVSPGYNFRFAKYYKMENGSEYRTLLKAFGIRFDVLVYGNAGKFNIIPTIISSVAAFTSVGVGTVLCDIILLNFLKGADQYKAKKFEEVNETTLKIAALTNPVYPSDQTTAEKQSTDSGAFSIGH
In words: Intracellular calcium measurement to assess antagonist activity at human P2X3 receptors (hP2X3 CHO), photina luminescence. To be noted: column 2), CHO cells, agonist α,β-methylene-ATP at EC50. Also noted: expressed in transfected cells; host or cells: Chinese hamster ovary (CHO) cells. The method in brief: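 Antagonism read as lowered photina luminescence after agonist stimulation in recombinant hP2X3/photina CHO cells. Cells seeded one day earlier (30 °C) and reconstituted with 5 μg/ml coelenterazine in 2 mM Ca-tyrode buffer for 3 h at 37 °C before measurement.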

Assay [2] addresses T1, human P2X3 receptor. In words: Intracellular calcium measurement, antagonist activity at human P2X3 receptors (hP2X3 1321N1), Fluo8. Details: expressed in transfected cells; host or cells: human astrocytoma 1321N1 (1312N1 [sic]). The settings on record: column 3); 1321N1 cells, human P2X3, Fluo8, agonist ATP at EC50. The method in brief: (§1)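 Antagonism was assessed by decrease of the Fluo8 calcium signal after ATP challenge, with ATP dosed at the EC50 of whichever receptor was tested. Stable 1321N1 astrocytoma lines expressed either human P2X3 or both P2X2 and P2X3, and were dye-loaded 60 min before a 10 min compound incubation.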

The next assay concerns the target T2, human P2X2/3 receptors (Homo sapiens, UniProt P56373+Q9UBL9).
T2 construct: expressed in transfected cells; host or cells: human astrocytoma 1321N1 (1312N1 [sic])
T2 sequence (P56373 1-397): T1 sequence (P56373 1-397)
T2 sequence (Q9UBL9 1-471): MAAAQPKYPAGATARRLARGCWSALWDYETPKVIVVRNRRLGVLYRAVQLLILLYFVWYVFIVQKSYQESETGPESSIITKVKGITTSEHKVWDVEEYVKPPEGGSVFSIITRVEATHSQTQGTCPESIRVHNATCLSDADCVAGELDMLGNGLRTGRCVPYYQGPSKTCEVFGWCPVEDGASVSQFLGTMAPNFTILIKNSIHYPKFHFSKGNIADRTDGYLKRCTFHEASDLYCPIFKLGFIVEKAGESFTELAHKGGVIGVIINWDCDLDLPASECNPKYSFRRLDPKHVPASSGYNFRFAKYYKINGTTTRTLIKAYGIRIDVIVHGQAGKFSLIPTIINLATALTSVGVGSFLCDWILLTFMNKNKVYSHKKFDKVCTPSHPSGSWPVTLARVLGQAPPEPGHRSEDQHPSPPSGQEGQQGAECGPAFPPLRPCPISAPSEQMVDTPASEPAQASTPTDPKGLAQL
Description: Intracellular calcium measurement, antagonist activity at human P2X2/3 receptors (hP2X23 1321N1), Fluo8. The settings on record: for IC50: column 4); 1321N1 cells, human P2X2/3, Fluo8, agonist ATP at EC50; read-out: 4) hP2X2/3 IC50 [nM] (1321N1); for hP2X23/hP2X3* Selectivity (1321N1): ratio of column 4) hP2X2/3 to column 3) hP2X3, 1321N1. A digest of the protocol:
as §1

For the compound `CCc1cc2n(CC(=O)Nc3ccc(F)cn3)c3c(c(=O)n2n1)CN(CCN)C3=O` [Example 245, 2-[6-(2-aminoethyl)-2-ethyl-5,8-dioxo-5,6,7,8-tetrahydro-4H-pyrazolo[1,5-a]pyrrolo[3,4-d]pyrimidin-4-yl]-N-(5-fluoropyridin-2-yl)acetamide], the values for the IC50 at human P2X3 receptor [1], on human P2X3 receptor [2] and on human P2X2/3 receptors were 425 nM, 345 nM and more than 21000 nM, respectively. In addition, the “hP2X23/hP2X3* Selectivity (1321N1)” value on human P2X2/3 receptors is more than 61.
In the same order, the values of `CCc1cc2n(CC(=O)Nc3ccc(F)cn3)c3c(c(=O)n2n1)CN(C[C@@H]1CNCCO1)C3=O` [Example 246, 2-{2-ethyl-6-[(2S)-morpholin-2-ylmethyl]-5,8-dioxo-5,6,7,8-tetrahydro-4H-pyrazolo[1,5-a]pyrrolo[3,4-d]pyrimidin-4-yl}-N-(5-fluoropyridin-2-yl)acetamide] are 830 nM, 2200 nM, more than 32000 nM and more than 15.
`CCc1cc2n(CC(=O)Nc3ccc(F)cn3)c3c(c(=O)n2n1)CN(C[C@H]1CNCCO1)C3=O` [Example 247, 2-{2-ethyl-6-[(2R)-morpholin-2-ylmethyl]-5,8-dioxo-5,6,7,8-tetrahydro-4H-pyrazolo[1,5-a]pyrrolo[3,4-d]pyrimidin-4-yl}-N-(5-fluoropyridin-2-yl)acetamide]: the IC50 at human P2X3 receptor [1] is 360 nM; at human P2X3 receptor [2] it was 937 nM; on human P2X2/3 receptors, more than 32000 nM. In addition, the “hP2X23/hP2X3* Selectivity (1321N1)” value on human P2X2/3 receptors is reported as more than 34.
Regarding `CCc1cc2n(CC(=O)Nc3ccc(F)cn3)c3c(c(=O)n2n1)CN(C[C@@H]1COCCN1)C3=O` [Example 248, 2-{2-ethyl-6-[(3R)-morpholin-3-ylmethyl]-5,8-dioxo-5,6,7,8-tetrahydro-4H-pyrazolo[1,5-a]pyrrolo[3,4-d]pyrimidin-4-yl}-N-(5-fluoropyridin-2-yl)acetamide], the IC50 was 185 nM at human P2X3 receptor [1], 740 nM at human P2X3 receptor [2] and more than 32000 nM on human P2X2/3 receptors. Moreover, the “hP2X23/hP2X3* Selectivity (1321N1)” value at human P2X2/3 receptors is given as more than 43.
On to `CC(C)N1Cc2c(n(CC(=O)Nc3ccc(F)cn3)c3cc(C4CCN(C5CCC5)C4)nn3c2=O)C1=O` (stereo not drawn) [Example 250], for which the results for the IC50 at human P2X3 receptor [1], at human P2X3 receptor [2] and on human P2X2/3 receptors were 162 nM, 118 nM and 4300 nM, respectively. Moreover, on human P2X2/3 receptors, the “hP2X23/hP2X3* Selectivity (1321N1)” value is reported as 36.
For the compound `CC(C)N1Cc2c(n(CC(=O)Nc3ccc(F)cn3)c3cc(C4CCN(C)CC4)nn3c2=O)C1=O` [Example 251], the IC50 is 235 nM on human P2X3 receptor [1], 195 nM on human P2X3 receptor [2] and more than 32000 nM at human P2X2/3 receptors. The “hP2X23/hP2X3* Selectivity (1321N1)” value on human P2X2/3 receptors is recorded as more than 164.
In the same order, the values of `CC(C)N1Cc2c(n(CC(=O)Nc3ccc(F)cn3)c3cc(C4CCN(C5CCC5)CC4)nn3c2=O)C1=O` [Example 252] are 460 nM, 350 nM, more than 32000 nM and more than 91.
Consider `CCc1cc2n(CC(=O)Nc3ccc(F)cn3)c3c(c(=O)n2n1)CN(C1CCN(C)C1)C3=O` (stereo not drawn) [Example 253], for which the IC50 on human P2X3 receptor [1] was 493 nM; on human P2X3 receptor [2], 793 nM; on human P2X2/3 receptors, more than 32000 nM. Further, the “hP2X23/hP2X3* Selectivity (1321N1)” value at human P2X2/3 receptors is on record as more than 40.
As to `CCc1cc2n(CC(=O)Nc3ccc(F)cn3)c3c(c(=O)n2n1)CN(C[C@H]1CN(C)CCO1)C3=O` [Example 255, 2-(2-ethyl-6-{[(2R)-4-methylmorpholin-2-yl]methyl}-5,8-dioxo-5,6,7,8-tetrahydro-4H-pyrazolo[1,5-a]pyrrolo[3,4-d]pyrimidin-4-yl)-N-(5-fluoropyridin-2-yl)acetamide], the IC50 on human P2X3 receptor [1] worked out at 400 nM; on human P2X3 receptor [2], 440 nM; at human P2X2/3 receptors it was 11300 nM. Moreover, at human P2X2/3 receptors, the “hP2X23/hP2X3* Selectivity (1321N1)” value was found to be 26.
In the same order, the values of `CCc1cc2n(CC(=O)Nc3ccc(F)cn3)c3c(c(=O)n2n1)CN(C[C@H]1CN(C(C)C)CCO1)C3=O` [Example 256, 2-(2-ethyl-5,8-dioxo-6-{[(2R)-4-(propan-2-yl)morpholin-2-yl]methyl}-5,6,7,8-tetrahydro-4H-pyrazolo[1,5-a]pyrrolo[3,4-d]pyrimidin-4-yl)-N-(5-fluoropyridin-2-yl)acetamide] are 42 nM, 53 nM, 1590 nM and 30.
As for `CCc1cc2n(CC(=O)Nc3ccc(F)cn3)c3c(c(=O)n2n1)CN(C[C@H]1CN(C2CCC2)CCO1)C3=O` [Example 257], the IC50 at human P2X3 receptor [1] was 54 nM; at human P2X3 receptor [2] it was 57 nM; on human P2X2/3 receptors, 660 nM. Besides, on human P2X2/3 receptors, the “hP2X23/hP2X3* Selectivity (1321N1)” value is on record as 12.
Regarding `CCc1cc2n(CC(=O)Nc3ccc(F)cn3)c3c(c(=O)n2n1)CN(C[C@H]1CN(C2CC2)CCO1)C3=O` [Example 258], the IC50 on human P2X3 receptor [1] turned out to be 66 nM; on human P2X3 receptor [2] it was 52 nM; on human P2X2/3 receptors, 1080 nM. The “hP2X23/hP2X3* Selectivity (1321N1)” value at human P2X2/3 receptors stood at 21.
Consider `CCc1cc2n(CC(=O)Nc3ccc(F)cn3)c3c(c(=O)n2n1)CN(C[C@H]1CN(CCC(F)(F)F)CCO1)C3=O` [Example 259], for which the IC50 at human P2X3 receptor [1] was 33 nM; at human P2X3 receptor [2], 71 nM; on human P2X2/3 receptors it was 1170 nM. Further, at human P2X2/3 receptors, the “hP2X23/hP2X3* Selectivity (1321N1)” value worked out at 16.
In the same order, the values of `CCc1cc2n(CC(=O)Nc3ccc(F)cn3)c3c(c(=O)n2n1)CN(C[C@@H]1COCCN1C(C)C)C3=O` [Example 260] are 108 nM, 141 nM, more than 20600 nM and more than 146.
Take `CCc1cc2n(CC(=O)Nc3ccc(F)cn3)c3c(c(=O)n2n1)CN(C[C@@H]1COCCN1CCC(F)(F)F)C3=O` [Example 261]: the IC50 at human P2X3 receptor [1] was determined as 41 nM; at human P2X3 receptor [2], 39 nM; at human P2X2/3 receptors, 5550 nM. Besides, on human P2X2/3 receptors, the “hP2X23/hP2X3* Selectivity (1321N1)” value stood at 142.
As for `CC(=O)N1CCC(c2cc3n(CC(=O)Nc4ccc(F)cn4)c4c(c(=O)n3n2)CN(C(C)C)C4=O)CC1` [Example 263, 2-[2-(1-acetylpiperidin-4-yl)-5,8-dioxo-6-(propan-2-yl)-5,6,7,8-tetrahydro-4H-pyrazolo[1,5-a]pyrrolo[3,4-d]pyrimidin-4-yl]-N-(5-fluoropyridin-2-yl)acetamide], the IC50 on human P2X3 receptor [1] came out at 35 nM; at human P2X3 receptor [2] it was 25 nM; on human P2X2/3 receptors it was 4700 nM. Further, the “hP2X23/hP2X3* Selectivity (1321N1)” value at human P2X2/3 receptors stood at 191.
In the same order, the values of `CC(C)N1Cc2c(n(CC(=O)Nc3ccc(F)cn3)c3cc(C4CCN(C(=O)C(F)F)CC4)nn3c2=O)C1=O` [Example 264] are 36 nM, 17 nM, 7400 nM and 427.
As to `CCc1cc2n(CC(=O)Nc3ccc(F)cn3)c3c(c(=O)n2n1)CN(C1CCN(C(C)=O)C1)C3=O` (stereo not drawn) [Example 265], the results for the IC50 on human P2X3 receptor [1], at human P2X3 receptor [2] and at human P2X2/3 receptors were 533 nM, 470 nM and more than 32000 nM, respectively. At human P2X2/3 receptors, the “hP2X23/hP2X3* Selectivity (1321N1)” value is more than 68.
As to `CCc1cc2n(CC(=O)Nc3ccc(F)cn3)c3c(c(=O)n2n1)CN(C1CCN(C(=O)C(F)F)C1)C3=O` (stereo not drawn) [Example 266], the IC50 was 270 nM at human P2X3 receptor [1], 317 nM at human P2X3 receptor [2] and more than 32000 nM at human P2X2/3 receptors. The “hP2X23/hP2X3* Selectivity (1321N1)” value on human P2X2/3 receptors was more than 101.
In the same order, the values of `CCc1cc2n(CC(=O)Nc3ccc(F)cn3)c3c(c(=O)n2n1)CN(C[C@H]1CN(C(C)=O)CCO1)C3=O` [Example 267] are 557 nM, 325 nM, 8000 nM and 25.
With `CC(C)N1Cc2c(n(CC(=O)Nc3ccc(F)cn3)c3cc(C4CCN(S(=O)(=O)CC(F)(F)F)C4)nn3c2=O)C1=O` (stereo not drawn) [Example 271], the IC50 was 81 nM on human P2X3 receptor [1], 36 nM at human P2X3 receptor [2] and more than 20500 nM at human P2X2/3 receptors. The “hP2X23/hP2X3* Selectivity (1321N1)” value at human P2X2/3 receptors is on record as more than 569.
